According to ChEMBL document CHEMBL1150967, “Two new diterpene glycosides from the soft coral lemnalia bournei” (J Nat Prod, 1998):
Converted amounts (≈) assume the structure as drawn.

What was measured:
Type in all cases: functional, cell-based
[1] = Cytotoxicity against mouse EAC cells; settings: Ehrlich
[2] = Cytotoxicity against human HepA cells
[3] = Cytotoxicity against mouse S180A cells

In the case of `CC(=O)O[C@@H]1[C@@H](O)[C@@H]2O[C@@H]([C@H](C)CCC[C@H](C)[C@@H]3CC=C(C)[C@H]4CCC(C)=C[C@@H]34)OC[C@@H](O2)[C@H]1O` [LEMNABOURSIDE B], the IC50 [1] is reported as 73.3 µg/mL (≈ 149 µM), the IC50 [2] is reported as 33.5 µg/mL (≈ 68 µM) and the IC50 [3] is reported as 40 µg/mL (≈ 81.2 µM).

`CC(=O)O[C@H]1[C@H](O)[C@@H](O)[C@@H]2O[C@@H]([C@H](C)CCC[C@H](C)[C@@H]3CC=C(C)[C@H]4CCC(C)=C[C@@H]34)OC[C@H]1O2` [LEMNABOURSIDE C] gave an IC50 [1] of 40.5 µg/mL (≈ 82.2 µM), an IC50 [2] of 41.4 µg/mL (≈ 84 µM) and an IC50 [3] of 187 µg/mL (≈ 379 µM).

In the case of `CC1=C[C@H]2[C@H]([C@H](C)CCC[C@@H](C)C3OC[C@H]4O[C@@H](O3)[C@H](O)[C@@H](O)[C@@H]4O)CC=C(C)[C@H]2CC1` (some centres undefined) [LEMNABOURSIDE], the IC50 [1] is reported as 97.8 µg/mL (≈ 217 µM), the IC50 [2] is reported as 31.6 µg/mL (≈ 70.1 µM) and the IC50 [3] is reported as 27.4 µg/mL (≈ 60.8 µM).
